Measured values: ChEMBL document CHEMBL1909046, “DrugMatrix in vitro pharmacology data”

What was measured:
[1] = molecular target: T1, Cholecystokinin receptor type A (Homo sapiens, UniProt P32238); assay type: cell membranes, Membrane; details: 1321-n1; also: in other assays of this panel Not Active means under 50% inhibition at 10 µM
T1 sequence (P32238 whole entry): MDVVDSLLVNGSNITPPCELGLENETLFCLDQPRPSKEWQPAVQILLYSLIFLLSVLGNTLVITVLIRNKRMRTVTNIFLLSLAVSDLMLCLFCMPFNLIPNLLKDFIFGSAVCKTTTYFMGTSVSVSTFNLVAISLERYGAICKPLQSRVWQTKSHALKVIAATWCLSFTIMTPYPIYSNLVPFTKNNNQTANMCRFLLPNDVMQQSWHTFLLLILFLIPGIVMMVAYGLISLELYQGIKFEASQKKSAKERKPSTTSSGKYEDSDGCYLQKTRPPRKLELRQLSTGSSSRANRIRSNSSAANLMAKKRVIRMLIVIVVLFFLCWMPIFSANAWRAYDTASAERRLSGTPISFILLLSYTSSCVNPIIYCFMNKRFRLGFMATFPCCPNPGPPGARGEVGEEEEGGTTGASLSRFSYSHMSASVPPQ

[2] = molecular target: Sigma non-opioid intracellular receptor 1 (Homo sapiens, UniProt Q99720); experiment: DRUGMATRIX: Sigma1 radioligand binding (ligand: [3H] Haloperidol); assay type: cell membranes, Jurkat, Membrane; details: Not Active = under 50% inhibition at 10 µM
Sequence of Sigma non-opioid intracellular receptor 1 (Q99720 whole entry): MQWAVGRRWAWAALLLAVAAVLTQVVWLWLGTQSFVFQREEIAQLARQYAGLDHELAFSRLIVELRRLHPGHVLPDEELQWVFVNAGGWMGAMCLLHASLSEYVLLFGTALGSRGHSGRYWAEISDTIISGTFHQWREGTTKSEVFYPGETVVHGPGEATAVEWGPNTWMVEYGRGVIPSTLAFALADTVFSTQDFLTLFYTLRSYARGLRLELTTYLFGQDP

[3] = DRUGMATRIX: Sigma2 radioligand binding (ligand: [3H] Ifenprodil); assay type: cell membranes, Rattus norvegicus, Wistar, Brain, Membrane; details: Not Active = under 50% inhibition at 10 µM
[4] = molecular target: T2, 5-hydroxytryptamine receptor 2C (Homo sapiens, UniProt P28335); experiment: DRUGMATRIX: Serotonin (5-Hydroxytryptamine) 5-HT2C radioligand binding (ligand: [3H] Mesulergine); assay type: cell membranes, CHO-K1, Membrane; details: Not Active = under 50% inhibition at 10 µM
T2 sequence (P28335 whole entry): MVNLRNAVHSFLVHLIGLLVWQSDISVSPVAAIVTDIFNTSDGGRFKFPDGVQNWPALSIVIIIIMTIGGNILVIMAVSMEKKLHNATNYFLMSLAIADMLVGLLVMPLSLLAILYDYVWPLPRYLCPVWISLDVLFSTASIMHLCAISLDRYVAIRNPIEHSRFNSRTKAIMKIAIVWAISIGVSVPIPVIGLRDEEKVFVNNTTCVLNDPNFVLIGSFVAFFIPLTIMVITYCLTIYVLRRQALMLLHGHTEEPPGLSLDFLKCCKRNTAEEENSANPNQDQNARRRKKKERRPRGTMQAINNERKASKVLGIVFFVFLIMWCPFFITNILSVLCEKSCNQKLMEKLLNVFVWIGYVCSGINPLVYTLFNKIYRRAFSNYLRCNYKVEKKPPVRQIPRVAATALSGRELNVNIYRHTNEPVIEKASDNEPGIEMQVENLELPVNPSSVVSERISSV

Estrogen receptor beta = Estrogen receptor beta (Homo sapiens, UniProt Q92731); details: sf9; also: in other assays of this panel Not Active means under 50% inhibition at 10 µM
Sequence of Estrogen receptor beta (Q92731 whole entry): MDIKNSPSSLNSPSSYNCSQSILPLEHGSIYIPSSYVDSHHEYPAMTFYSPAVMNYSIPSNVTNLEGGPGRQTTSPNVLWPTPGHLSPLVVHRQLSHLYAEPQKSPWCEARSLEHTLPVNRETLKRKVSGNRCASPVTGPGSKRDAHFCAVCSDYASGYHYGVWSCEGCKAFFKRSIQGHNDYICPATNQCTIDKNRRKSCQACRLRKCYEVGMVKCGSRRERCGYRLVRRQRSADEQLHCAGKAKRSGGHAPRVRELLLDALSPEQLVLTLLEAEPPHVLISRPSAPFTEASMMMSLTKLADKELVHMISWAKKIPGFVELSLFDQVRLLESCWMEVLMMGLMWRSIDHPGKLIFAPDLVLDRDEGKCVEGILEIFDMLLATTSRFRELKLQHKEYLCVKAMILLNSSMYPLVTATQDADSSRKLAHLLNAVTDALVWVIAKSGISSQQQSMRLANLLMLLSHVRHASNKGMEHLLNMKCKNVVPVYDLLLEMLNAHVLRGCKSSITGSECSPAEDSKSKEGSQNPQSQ

[5] = molecular target: Mitogen-activated protein kinase 1 (Homo sapiens, UniProt P28482); experiment: DRUGMATRIX: Protein Serine/Threonine Kinase, ERK2 enzyme inhibition (substrate: Myelin Basic Protein); parameters: species or system Escherichia coli; details: Not Active = under 50% inhibition at 10 µM
Sequence of Mitogen-activated protein kinase 1 (P28482 whole entry): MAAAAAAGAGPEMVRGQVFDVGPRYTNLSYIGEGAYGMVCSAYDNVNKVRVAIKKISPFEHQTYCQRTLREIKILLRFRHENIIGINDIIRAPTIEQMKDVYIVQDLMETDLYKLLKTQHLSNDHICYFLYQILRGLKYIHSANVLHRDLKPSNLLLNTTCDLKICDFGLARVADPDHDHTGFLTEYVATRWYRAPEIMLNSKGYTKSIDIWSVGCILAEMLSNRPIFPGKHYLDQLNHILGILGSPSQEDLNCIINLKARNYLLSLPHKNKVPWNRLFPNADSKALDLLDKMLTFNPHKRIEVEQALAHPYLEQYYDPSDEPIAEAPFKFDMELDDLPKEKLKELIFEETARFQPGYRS

Molecule | IC50 [1] | IC50 ([2]; jurkat) | IC50 [3] | Ki [3] | IC50 ([4]; cho-k1) | IC50 (Estrogen receptor beta) | IC50 [5] | Ki [1] | Ki ([2]; jurkat) | Ki ([4]; cho-k1) | Ki (Estrogen receptor beta) | Ki [5] | IC50 ([4]; read-out: IC50) | Ki ([4]; read-out: Ki) | IC50 ([2]; read-out: IC50) | Ki ([2]; read-out: Ki) | IC50 ([3]; read-out: IC50) | Ki ([3]; read-out: Ki)
CC[C@@H](C(=O)[C@@H](C)[C@@H](O)[C@H](C)[C@@H]1O[C@@H]([C@@H](CC)C(=O)O)CC[C@@H]1C)[C@H]1O[C@]2(C=C[C@@H](O)[C@]3(CC[C@@](C)([C@H]4CC[C@](O)(CC)[C@H](C)O4)O3)O2)[C@H](C)C[C@@H]1C [SALINOMYCIN] | Not Active | Not Active | Not Active | Not Active | Not Active | Not Active | Not Active | – | – | – | – | – | – | – | – | – | – | –
CCN(CC)CCNC(=O)c1cc(S(C)(=O)=O)ccc1OC [TIAPRIDE] | Not Active | Not Active | Not Active | Not Active | Not Active | Not Active | Not Active | – | – | – | – | – | – | – | – | – | – | –
MANGANESE CHLORIDE ANHYDROUS | Not Active | Not Active | Not Active | Not Active | Not Active | Not Active | Not Active | Not Active | Not Active | Not Active | Not Active | Not Active | – | – | – | – | – | –
CNC1(c2ccccc2Cl)CCCCC1=O (configuration not stated) [KETAMINE] | Not Active | Not Active | Not Active | Not Active | Not Active | Not Active | Not Active | – | – | – | – | – | – | – | – | – | – | –
CCN(CC)CC(=O)Nc1c(C)cccc1C [LIDOCAINE] | Not Active | Not Active | Not Active | Not Active | Not Active | Not Active | Not Active | – | – | – | – | – | – | – | – | – | – | –
Nc1cc(N2CCCCC2)nc(N)[n+]1[O-] [MINOXIDIL] | Not Active | Not Active | Not Active | Not Active | Not Active | Not Active | Not Active | – | – | – | – | – | – | – | – | – | – | –
COc1c2occc2cc2ccc(=O)oc12 [METHOXSALEN] | Not Active | Not Active | Not Active | Not Active | Not Active | Not Active | Not Active | – | – | – | – | – | – | – | – | – | – | –
Cc1c(C)c2c(c(C)c1O)CCC(C)(CN1CCN(c3cc(N4CCCC4)nc(N4CCCC4)n3)CC1)O2 (configuration not stated) | Not Active | Not Active | Not Active | Not Active | – | Not Active | Not Active | – | – | – | – | – | 7.56 µM | 3.96 µM | – | – | – | –
Clc1ccccc1CN1CCc2sccc2C1 [TICLOPIDINE] | Not Active | – | – | – | Not Active | Not Active | Not Active | – | – | – | – | – | – | – | 426 nM | 179 nM | 3.26 µM | 2010 nM
CCN1CCC[C@H]1CNC(=O)c1cc(S(N)(=O)=O)ccc1OC [LEVOSULPIRIDE] | Not Active | Not Active | Not Active | Not Active | Not Active | Not Active | Not Active | – | – | – | – | – | – | – | – | – | – | –
